Experiments:
BCL6 = BCL6 (Homo sapiens, UniProt P41182); test: Surface Plasmon Resonance (SPR), control surface; format: binding; conditions: immobilized unrelated protein BCL6
[1] = test system: AML/MDS harboring IDH1-R132 mutations; test: Phase 1 dose escalation and expansion study, investigator-assessed response; format: in vivo, human
[2] = test system: IDH1m clone in AML patients; test: IDH1 Variant Allele Frequency (VAF) analysis in Phase 1 patients; format: in vivo, human
Method: Next generation sequencing was carried out through target enrichment using HaloPlex® Target followed by Illumina® sequencing; coverage>100X across 75 genes. Digitial droplet PCR (ddPCR) was carried out through an input of 20 ng on a Stilla 3-channel system; VAF data based on >20,000 droplets.
25 patients achieved an objective response and 6 patients with SD had available longitudinal samples for analysis (VAF at C3).

For `C[C@H](Nc1ccc(C#N)n(C)c1=O)c1cc2cc(Cl)ccc2[nH]c1=O` [Compound 1, 5-{[(1S)-1-(6-chloro-2-oxo-1,2-dihydroquinolin-3-yl)ethyl]amino}-1-methyl-6-oxo-1,6-dihydropyridine-2-carbonitrile], the “binding to control surface” value (BCL6) was “no binding was observed”, the “CR/CRm, n (%)” value ([1]; All Pts) was 5 (16) n (%) and the “CRh, n (%)” value ([1]; All Pts) was 3 (9) n (%). For the same molecule, the “Marrow CR, n (%)” value ([1]; All Pts) was 1 (3) n (%), the “PD, n (%)” value ([1]; All Pts) was 3 (9) n (%) and the “CR/CRm, n (%)” value ([1]; R/R AML) was 4 (18) n (%). For the same molecule, the “CRh, n (%)” value ([1]; R/R AML) was 3 (14) n (%), the “Cri, n (%)” value ([1]; R/R AML) was 2 (9) n (%) and the “NE, n (%)” value ([1]; R/R AML) was 6 (27) n (%). The “PD, n (%)” value ([1]; R/R AML) was 2 (9) n (%), the “pts achieving ORR” value ([1]; R/R AML) was 41% and the “patients with clearance/significant reduction of the IDH1m VAF” value ([2]; 3 of 6 patients with stable disease) was 50%. For the same molecule, the “patients with IDH1 mutation clearance/significant VAF reduction” value ([2]; 10 of 25 patients with an IWG (objective) response, single agent or with azacitidine, VAF at ≥C3) was 40% and the “IDH1 mutation and 2-HG, case study 2” value ([2]; one treatment naive AML secondary to MDS patient, single agent, stable for 15 cycles, no IWG response) was “IDH1 mutation clearance and normalization of 2-HG were observed”.
